# Bridge positions count the residues as written; N and C are the ends. Square brackets hold non-standard residues; d marks the D form. Peptide text beside a SMILES is read from it. * marks the point of attachment. Phe(4-(4-F-Ph)) = N[C@@H](Cc1ccc(-c2ccc(F)cc2)cc1)C(=O)O; Tyr(3-NO2) = N[C@@H](Cc1ccc(O)c([N+](=O)[O-])c1)C(=O)O; Phe(4-COOH) = N[C@@H](Cc1ccc(C(=O)O)cc1)C(=O)O; Bip = N[C@@H](Cc1ccc(-c2ccccc2)cc1)C(=O)O; Phe(3-CN) = N#Cc1cccc(C[C@H](N)C(=O)O)c1; Phe(3-OMe) = COc1cccc(C[C@H](N)C(=O)O)c1; Phe(4-NH2) = Nc1ccc(C[C@H](N)C(=O)O)cc1; Phe(3-Me) = Cc1cccc(C[C@H](N)C(=O)O)c1; 4Pal = N[C@@H](Cc1ccncc1)C(=O)O; Cha = N[C@@H](CC1CCCCC1)C(=O)O; Cit = NC(=O)NCCC[C@H](N)C(=O)O; Carboxymethyl = O=C(O)C*; NMeA = CN[C@@H](C)C(=O)O; Orn = NCCC[C@H](N)C(=O)O; Dab = NCC[C@H](N)C(=O)O; Dap = NC[C@H](N)C(=O)O
# Target: T1, PE-labeled human PD-L1-Ig binding to Jurkat cell line over-expressing human PD-1 (Jurkat-PD-1) (Homo sapiens, UniProt Q15116)
# T1 construct: expressed in transfected cells; host or cells: Jurkat
# Assay: Jurkat-PD-1 Cell Binding High-Content Screening Assay (CBA): Method 1
# Conditions: Jurkat HPDL1 PD1 IC50 (uM) (Method 1), Jurkat-hPD-1 cells, PE-labeled PD-L1-Ig 20 nM final
# T1 sequence (Q15116 25-288): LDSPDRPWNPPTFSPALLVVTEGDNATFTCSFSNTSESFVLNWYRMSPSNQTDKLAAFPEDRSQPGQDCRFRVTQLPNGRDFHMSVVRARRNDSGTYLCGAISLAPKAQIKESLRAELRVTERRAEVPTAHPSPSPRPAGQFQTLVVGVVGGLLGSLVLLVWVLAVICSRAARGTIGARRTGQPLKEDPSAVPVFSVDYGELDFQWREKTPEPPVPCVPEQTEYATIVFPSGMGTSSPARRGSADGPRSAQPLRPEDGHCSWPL
row,Structure (SMILES),IC50 [µM]
1,CC(C)C[C@@H]1NC(=O)[C@H](CCN)NC(=O)[C@@H](CC(C)C)NC(=O)[C@H](C)N(C)C(=O)[C@H](CCCNC(=N)N)NC(=O)[C@H](Cc2ccc(-c3ccccc3)cc2)NC(=O)[C@H](C(C)C)NC(=O)[C@H](Cc2c[nH]c3ccccc23)NC(=O)[C@H](CC(=O)O)NC(=O)[C@H](Cc2ccc(O)cc2)NC(=O)[C@H](CC(N)=O)NC(=O)CSC[C@@H](C(=O)N[C@@H](C)C(N)=O)NC(=O)[C@H](CO)NC(=O)[C@H](C(C)C)NC1=O [Compound 1054] ({CH2CO}-NYDWV[Bip]R[NMeA][dL][Dab]LVSCA-NH2; thioether N-14),0.09

# Same assay, conditions: Jurkat-hPD-1 cells, PE-labeled PD-L1-Ig 20 nM final; read-out: Jurkat HPDL1 PD1 IC50 (uM) (Method 1)
row,IC50 [µM],Structure (SMILES)
1,0.02,Cc1cccc(C[C@@H]2NC(=O)[C@H](CC(=O)O)NC(=O)[C@H](Cc3ccc(C(=O)O)cc3)NC(=O)[C@H](Cc3ccc(OCC(=O)O)cc3)NC(=O)CSC[C@@H](C(N)=O)NC(=O)[C@H](CO)NC(=O)[C@H](C(C)C)NC(=O)[C@H](CC(C)C)NC(=O)[C@H](CC(N)=O)NC(=O)[C@@H](CC(C)C)NC(=O)[C@H](C)N(C)C(=O)[C@H](C(C)C)NC(=O)[C@H](Cc3ccc(-c4ccccc4)cc3)NC(=O)[C@H](CC(C)C)NC2=O)c1 [Compound 1596] ({CH2CO}-Y(Carboxymethyl)[Phe(4-COOH)]D[Phe(3-Me)]L[Bip]V[NMeA][dL]NLVSC-NH2; thioether N-14)
2,0.07,Cc1cccc(C[C@@H]2NC(=O)[C@H](CC(=O)O)NC(=O)[C@H](Cc3ccc(OCC(=O)O)cc3)NC(=O)[C@H]([C@@H](C)O)NC(=O)CSC[C@@H](C(N)=O)NC(=O)[C@H](CCCN)NC(=O)[C@H](C(C)C)NC(=O)[C@H](CC3CCCCC3)NC(=O)[C@H](CCN)NC(=O)[C@@H](CC(C)C)NC(=O)[C@H](C)N(C)C(=O)[C@H](Cc3ccc(OCC(=O)O)cc3)NC(=O)[C@H](Cc3ccc(-c4ccccc4)cc3)NC(=O)[C@H](Cc3ccc(OCC(=O)O)cc3)NC2=O)c1 [Compound 1674] ({CH2CO}-TY(Carboxymethyl)D[Phe(3-Me)]Y(Carboxymethyl)[Bip]Y(Carboxymethyl)[NMeA][dL][Dab][Cha]V[Orn]C-NH2; thioether N-14)
3,0.04,CC(C)C[C@@H]1NC(=O)[C@H](Cc2c[nH]c3ccccc23)NC(=O)[C@H](CC(=O)O)NC(=O)[C@H](Cc2ccc(O)cc2)NC(=O)[C@H](CC(N)=O)NC(=O)CSC[C@@H](C(=O)N[C@@H](C)C(N)=O)NC(=O)[C@H](CO)NC(=O)[C@H](C(C)C)NC(=O)[C@H](CC(C)C)NC(=O)[C@H](CC(N)=O)NC(=O)[C@@H](C)NC(=O)[C@H](C)N(C)C(=O)[C@H](C(C)C)NC(=O)[C@H](Cc2ccc(-c3ccccc3)cc2)NC1=O [Compound 1762] ({CH2CO}-NYDWL[Bip]V[NMeA][dA]NLVSCA-NH2; thioether N-14)
4,0.05,CC(C)C[C@@H]1NC(=O)[C@H](CCN)NC(=O)[C@@H](CC(C)C)NC(=O)[C@H](C)N(C)C(=O)[C@H](CCCNC(=N)N)NC(=O)[C@H](Cc2ccc(-c3ccccc3)cc2)NC(=O)[C@H](C(C)C)NC(=O)[C@H](Cc2c[nH]c3ccccc23)NC(=O)[C@H](CC(=O)O)NC(=O)[C@H](Cc2ccc(O)cc2)NC(=O)[C@H](CCCN)NC(=O)CSC[C@@H](C(=O)N[C@@H](C)C(N)=O)NC(=O)[C@H]([C@@H](C)O)NC(=O)[C@H](C(C)C)NC1=O [Compound 1341] ({CH2CO}-[Orn]YDWV[Bip]R[NMeA][dL][Dab]LVTCA-NH2; thioether N-14)
5,0.01,COc1cccc(C[C@@H]2NC(=O)[C@H](CC(=O)O)NC(=O)[C@H](Cc3cccc(C#N)c3)NC(=O)[C@H](Cc3ccncc3)NC(=O)CSC[C@@H](C(=O)N[C@@H](C)C(N)=O)NC(=O)[C@@H](CO)NC(=O)[C@H](C(C)C)NC(=O)[C@H](CC(C)C)NC(=O)[C@H](CC(N)=O)NC(=O)[C@@H](C)NC(=O)[C@H](C)N(C)C(=O)[C@H](C(C)C)NC(=O)[C@H](Cc3ccc(-c4ccccc4)cc3)NC(=O)[C@@H](CC(C)C)NC2=O)c1 [Compound 1462] ({CH2CO}-[4Pal][Phe(3-CN)]D[Phe(3-OMe)][dL][Bip]V[NMeA][dA]NLV[dS]CA-NH2; thioether N-14)
6,0.15,Cc1cccc(C[C@@H]2NC(=O)[C@H](CC(=O)O)NC(=O)[C@H](Cc3ccc(O)cc3)NC(=O)[C@H](CC(N)=O)NC(=O)CSC[C@@H](C(N)=O)NC(=O)[C@H]([C@@H](C)O)NC(=O)[C@H](C(C)C)NC(=O)[C@H](CC(C)C)NC(=O)[C@H](CCN)NC(=O)[C@@H](CC(C)C)NC(=O)[C@H](C)N(C)C(=O)[C@H](C(C)C)NC(=O)[C@H](Cc3ccc(-c4ccccc4)cc3)NC(=O)[C@H](C(C)C)NC2=O)c1 [Compound 1637] ({CH2CO}-NYD[Phe(3-Me)]V[Bip]V[NMeA][dL][Dab]LVTC-NH2; thioether N-14)
7,0.1,Cc1cccc(C[C@@H]2NC(=O)[C@H](CC(=O)O)NC(=O)[C@H](Cc3ccc(OCC(=O)O)cc3)NC(=O)[C@H](CN)NC(=O)CSC[C@@H](C(N)=O)NC(=O)[C@H](CCC(N)=O)NC(=O)[C@H](C(C)C)NC(=O)[C@H](CC3CCCCC3)NC(=O)[C@H](CCN)NC(=O)[C@@H](CC(C)C)NC(=O)[C@H](C)N(C)C(=O)[C@H](Cc3ccc(OCC(=O)O)cc3)NC(=O)[C@H](Cc3ccc(-c4ccccc4)cc3)NC(=O)[C@H](Cc3ccc(OCC(=O)O)cc3)NC2=O)c1 [Compound 1649] ({CH2CO}-[Dap]Y(Carboxymethyl)D[Phe(3-Me)]Y(Carboxymethyl)[Bip]Y(Carboxymethyl)[NMeA][dL][Dab][Cha]VQC-NH2; thioether N-14)
8,0.09,Cc1cccc(C[C@@H]2NC(=O)[C@H](CC(=O)O)NC(=O)[C@H](Cc3ccc(OCC(=O)O)cc3)NC(=O)[C@H](CC(N)=O)NC(=O)CSC[C@@H](C(N)=O)NC(=O)[C@H](CCC(N)=O)NC(=O)[C@H](C(C)C)NC(=O)[C@H](CC3CCCCC3)NC(=O)[C@H](CCN)NC(=O)[C@@H](CC(C)C)NC(=O)[C@H](C)N(C)C(=O)[C@H](Cc3ccc(OCC(=O)O)cc3)NC(=O)[C@H](Cc3ccc(-c4ccccc4)cc3)NC(=O)[C@H](Cc3ccc(OCC(=O)O)cc3)NC2=O)c1 [Compound 1665] ({CH2CO}-NY(Carboxymethyl)D[Phe(3-Me)]Y(Carboxymethyl)[Bip]Y(Carboxymethyl)[NMeA][dL][Dab][Cha]VQC-NH2; thioether N-14)

# Continued, compound first:
row,Structure (SMILES),IC50 [µM]
1,CC(C)C[C@@H]1NC(=O)[C@H](CCN)NC(=O)[C@@H](CC(C)C)NC(=O)[C@H](C)N(C)C(=O)[C@H](CCCNC(=N)N)NC(=O)[C@H](Cc2ccc(-c3ccc(F)cc3)cc2)NC(=O)[C@H](C(C)C)NC(=O)[C@H](Cc2c[nH]c3ccccc23)NC(=O)[C@H](CC(=O)O)NC(=O)[C@H](Cc2ccc(O)cc2)NC(=O)[C@H](CC(N)=O)NC(=O)CSC[C@@H](C(=O)N[C@@H](C)C(N)=O)NC(=O)[C@H]([C@@H](C)O)NC(=O)[C@H](C(C)C)NC1=O [Compound 1229] ({CH2CO}-NYDWV[Phe(4-(4-F-Ph))]R[NMeA][dL][Dab]LVTCA-NH2; thioether N-14),0.13
2,CC(C)C[C@@H]1NC(=O)[C@H](CCN)NC(=O)[C@@H](CC(C)C)NC(=O)[C@H](C)N(C)C(=O)[C@H](CCCNC(=N)N)NC(=O)[C@H](Cc2ccc(-c3ccccc3)cc2)NC(=O)[C@H](C(C)C)NC(=O)[C@H](Cc2c[nH]c3ccccc23)NC(=O)[C@H](CC(=O)O)NC(=O)[C@H](Cc2ccc(O)cc2)NC(=O)[C@H](CCC(N)=O)NC(=O)CSC[C@@H](C(=O)N[C@@H](C)C(N)=O)NC(=O)[C@H]([C@@H](C)O)NC(=O)[C@H](C(C)C)NC1=O [Compound 1056] ({CH2CO}-QYDWV[Bip]R[NMeA][dL][Dab]LVTCA-NH2; thioether N-14),0.06
3,CC(C)C[C@@H]1NC(=O)[C@H](CCCNC(=N)N)NC(=O)[C@@H](CC(C)C)NC(=O)[C@H](C)N(C)C(=O)[C@H](CCCNC(=N)N)NC(=O)[C@H](Cc2ccc(-c3ccccc3)cc2)NC(=O)[C@H](C(C)C)NC(=O)[C@H](Cc2c[nH]c3ccccc23)NC(=O)[C@H](CC(=O)O)NC(=O)[C@H](Cc2ccc(N)cc2)NC(=O)[C@H](Cc2ccccc2)NC(=O)CSC[C@@H](C(=O)N[C@@H](C)C(N)=O)NC(=O)[C@H]([C@@H](C)O)NC(=O)[C@H](C(C)C)NC1=O [Compound 1082] ({CH2CO}-F[Phe(4-NH2)]DWV[Bip]R[NMeA][dL]RLVTCA-NH2; thioether N-14),0.04
4,CC(C)C[C@@H]1NC(=O)[C@H](CCCCN)NC(=O)[C@@H](CC(C)C)NC(=O)[C@H](C)N(C)C(=O)[C@H](C(C)C)NC(=O)[C@H](Cc2ccc(-c3ccccc3)cc2)NC(=O)[C@H](C(C)C)NC(=O)[C@H](Cc2c[nH]c3ccccc23)NC(=O)[C@H](CC(=O)O)NC(=O)[C@H](Cc2ccc(O)cc2)NC(=O)[C@H](CC(N)=O)NC(=O)CSC[C@@H](C(=O)N[C@@H](C)C(N)=O)NC(=O)[C@H]([C@@H](C)O)NC(=O)[C@H](C(C)C)NC1=O [Compound 1299] ({CH2CO}-NYDWV[Bip]V[NMeA][dL]KLVTCA-NH2; thioether N-14),0.02
5,CC(C)C[C@H]1NC(=O)[C@H](C)N(C)C(=O)[C@H](CCCNC(N)=O)NC(=O)[C@H](Cc2ccc(-c3ccccc3)cc2)NC(=O)[C@H](C(C)C)NC(=O)[C@H](Cc2c[nH]c3ccccc23)NC(=O)[C@H](CC(=O)O)NC(=O)[C@H](Cc2ccc(O)cc2)NC(=O)[C@H](CC(N)=O)NC(=O)CSC[C@@H](C(=O)N[C@@H](C)C(N)=O)NC(=O)[C@H]([C@@H](C)O)NC(=O)[C@H](C(C)C)NC(=O)[C@H](CC2CCCCC2)NC(=O)[C@H](CCN)NC1=O [Compound 1287] ({CH2CO}-NYDWV[Bip][Cit][NMeA][dL][Dab][Cha]VTCA-NH2; thioether N-14),0.01
6,CC(C)C[C@@H]1NC(=O)[C@H](CCCNC(=N)N)NC(=O)[C@@H](CC(C)C)NC(=O)[C@H](C)N(C)C(=O)[C@H](CCCNC(=N)N)NC(=O)[C@H](Cc2ccc(-c3ccccc3)cc2)NC(=O)[C@H](C(C)C)NC(=O)[C@H](Cc2c[nH]c3ccccc23)NC(=O)[C@H](CC(=O)O)NC(=O)[C@H](Cc2ccc(O)c([N+](=O)[O-])c2)NC(=O)[C@H](Cc2ccccc2)NC(=O)CSC[C@@H](C(=O)N[C@@H](C)C(N)=O)NC(=O)[C@H]([C@@H](C)O)NC(=O)[C@H](C(C)C)NC1=O [Compound 1095] ({CH2CO}-F[Tyr(3-NO2)]DWV[Bip]R[NMeA][dL]RLVTCA-NH2; thioether N-14),0.15

# From US20240409585A1, “MACROCYCLIC IMMUNOMODULATORS” (priority 2021, published 2024)
